Data taken from paper PMC6749524, “Identification of New Antifungal Agents Targeting Chitin Synthesis by a Chemical-Genetic Method” (Molecules, 2019).

What was measured:
[1] = tested on: CHS1, CHS2, and CHS3 genes; test: qRT-PCR gene expression; assay type: cell-based, S. cerevisiae; conditions: 25 μg/mL, 16 hours
Protocol: WT yeast cells were grown to 10^5 CFU/mL in YPD medium and then treated with 25 μg/mL compounds or 0.25% DMSO for 16 hours at 30 °C. Then, the cells were collected by centrifugation at 1500 g for 5 min and washed twice with water. Total RNA was prepared using the Yeast RNA kit (OMEGA R6870-01, Norcross, GA, USA) and treated with DNase Ⅰ (TransGen GD201-01, Beijing, China) to remove genomic DNA. The resulting RNA was reverse-transcribed with the cDNA synthesis super-mix kit (TransGen AT311, Beijing, China). qRT-PCR was performed using Fast Universal SYBR Green Master (Rox, Roche, Mannheim, Gemany) and gene-specific primers (Table S1). The DNA level was measured using an Real-Time Quantitative Thermal Cycler (FTC-3000, Funglyn Biotech Inc, Toronto, Canada). The expression levels were correlated with the copy numbers used to amplify the gene to reach the threshold, then represented as the mean ± SEM relative to the cells treated with DMSO. One-way ANOVAs were performed to identify deviation from the mean.

Chs2 = Chs2 (Saccharomyces cerevisiae, UniProt P14180); test: Chitin synthase activity assay (WGA-coated plate); assay type: biochemical, S. cerevisiae; conditions: membrane protein from WT yeast
Protocol: The inhibitory effect of compounds IMB-D10 and IMB-F4, on the activity of chitin synthases 1, 2, and 3, was measured by the procedure, described previously. In brief, WT yeast cells were grown in YPD medium to OD600 1–2. The cells were sedimented at 1500 g for 15 min at 4 °C and washed once with water. Then, the cells were resuspended in cold 100 mM Tris-HCl (pH 7.5) buffer containing protease inhibitors, and broken by 10 cycles of vortexing with acid-washed glass beads (1 min each). The broken cells were centrifuged for 15 min at 1500g to eliminate cell wall and debris. One volume of supernatant was placed on 2 volumes of 10% w/w sucrose in 100 mM Tris-HCl pH 7.5 and centrifuged at 55,000 g for 2 hours. The pellet was resuspended in 50 mM Tris-HCl pH 7 and used as membrane protein of Chs3. For Chs1 and Chs2, the membrane protein was pretreated with 80 μg/mL trypsin for 30 min at 30 °C.
To assess the enzyme activity of Chs1, the assay mixture contained 15 μg membrane protein, 5 mM MgCl2, 32 mM Tris-maleate (pH6.5), 0.2% digitonin, 40 mM N-acetyl-glucosamine (GlcNAc), and 4 mM UDP-GlcNAc. For Chs2, the mixture contained 15 μg pretreated membrane protein, 1.6 mM CoCl2, 32 mM Tris-HCl (pH 8), 40 mM GlcNAc, and 4 mM UDP-GlcNAc. For Chs3, the mixture contained pretreated membrane protein 15 μg, 1.6 mM CoCl2, 5 mM NiCl2, 32 mM Tris-HCl (pH 8), 40 mM GlcNAc, and 4 mM UDP-GlcNAc. Different concentrations of IMB-D10 and IMB-F4 were added to the mixture, and the reaction without UDP-GlcNAc was used to measure background absorbance. The 96-well plate coated with 50 μg/mL wheat germ agglutinin (WGA) was washed three times with water, and the reaction mixture was added into the wells and incubated at 30 °C for 60 min. The reaction was stopped by 50 mM EDTA, and the plate was emptied and washed with a large volume of water, followed by the addition of 200 μL 0.5 μg/mL WGA-HRP and incubation for 5 min at room temperature. The plate was washed 5 times with running distilled water. Then, the Tetramethylbenzidine (TMB) reagent was added, and the optical density at 600 nm (OD600) was immediately detected with Multilabel Reader (Envision, PE, Pontyclun, UK). All reactions were performed in triplicate.

Sequence of Chs2 (P14180 whole entry): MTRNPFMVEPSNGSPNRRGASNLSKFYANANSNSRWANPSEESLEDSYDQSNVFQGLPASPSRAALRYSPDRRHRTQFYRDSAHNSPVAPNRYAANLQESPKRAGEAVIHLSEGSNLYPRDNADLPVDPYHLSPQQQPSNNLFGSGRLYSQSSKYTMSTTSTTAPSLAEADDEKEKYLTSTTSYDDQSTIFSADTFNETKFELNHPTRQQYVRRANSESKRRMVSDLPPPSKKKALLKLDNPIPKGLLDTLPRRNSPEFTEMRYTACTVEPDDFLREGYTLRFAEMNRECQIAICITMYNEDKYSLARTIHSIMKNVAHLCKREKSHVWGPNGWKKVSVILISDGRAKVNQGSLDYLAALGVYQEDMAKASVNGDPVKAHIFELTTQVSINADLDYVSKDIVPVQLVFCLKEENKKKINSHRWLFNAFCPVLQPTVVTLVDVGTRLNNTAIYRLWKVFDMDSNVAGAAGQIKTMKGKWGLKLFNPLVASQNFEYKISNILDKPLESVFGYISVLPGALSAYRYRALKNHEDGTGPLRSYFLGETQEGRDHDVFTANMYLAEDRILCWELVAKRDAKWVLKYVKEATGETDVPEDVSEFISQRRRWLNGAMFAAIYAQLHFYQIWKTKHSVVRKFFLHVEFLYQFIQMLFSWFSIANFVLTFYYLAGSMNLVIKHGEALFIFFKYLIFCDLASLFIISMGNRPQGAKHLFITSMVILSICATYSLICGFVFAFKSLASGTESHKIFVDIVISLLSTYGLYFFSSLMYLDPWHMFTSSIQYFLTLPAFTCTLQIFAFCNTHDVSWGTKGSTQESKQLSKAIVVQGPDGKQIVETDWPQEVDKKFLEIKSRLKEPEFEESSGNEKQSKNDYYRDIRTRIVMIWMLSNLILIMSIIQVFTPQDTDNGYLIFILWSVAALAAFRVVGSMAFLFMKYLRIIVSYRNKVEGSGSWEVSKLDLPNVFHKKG

N-(2-(diethylamino) ethyl)-N-(7-hydroxy-4-methoxybenzo[d]thiazol -2-yl)-2-oxo-2H-chromene-3-carboxamide [IMB-D10]
expression levels of CHS1, CHS2, and CHS3 genes [1]: did not decrease significantly
IC50 Chs2 (Chs2): 3.516 ± 1.35 µg/mL
